Columns and labels:
[1] = tested on: IFNγ induced ICAM-1 (CD54) up-regulation in A549 lung epithelial cells (JAK/Stat pathway); experiment: A549 Epithelial Line Stimulated with IFNγ (ICAM-1 surface expression, flow cytometry); format: cell-based, human; settings: Table III Example 5
From the text: The activity of the compounds of the invention may additionally be characterized by assaying the effect of the 2,4-pyrimidinediamine compounds described herein on A549 lung epithelial cells and U937 cells. A549 lung epithelial cells and U937 cells up-regulate ICAM-1 (CD54) surface expression in response to a variety of different stimuli. Therefore, using ICAM-1 expression as readout, test compound effects on different signaling pathways can be assessed in the same cell type. Stimulation with IL-1β through the IL-1β receptor activates the TRAF6/NFκB pathway resulting in up-regulation of ICAM-1. IFNγ induces ICAM-1 up-regulation through activation of the JAK1/JAK2 pathway. The up-regulation of ICAM-1 can be quantified by flow cytometry across a compound dose curve and EC50 values are calculated. Exemplary assays of this type are described in greater detail in Examples 5 and 6.
A549 lung epithelial cells up-regulate ICAM-1 (CD54) surface expression in response to a variety of different stimuli. Therefore, using ICAM-1 expression as readout, compound effects on different signaling pathways can be assessed in the same cell type. IFNγ up-regulates ICAM-1 through activation of the JAK/Stat pathway. In this example, the up-regulation of ICAM-1 by IFNγ was assessed.
The A549 lung epithelial carcinoma cell line originated from the American Type Culture Collection. Routine culturing was with F12K media (Mediatech Inc., Lenexa, Kans., Cat. No. 10-025-CV) with 10% fetal bovine serum, 100 I.U. penicillin and […] streptomycin (complete F12k media). Cells were incubated in a humidified atmosphere of 5% CO2 at 37° C. Prior to use in the assay, A549 cells were washed with PBS and trypsinized (Mediatech Inc., Cat. No. 25-052-CI) to lift the cells. The trypsin cell suspension was neutralized with complete F12K media and centrifuged to pellet the cells. The cell pellet was resuspended in complete F12K media at a concentration of 2.0×10^5/mL. Cells were seeded at 20,000 per well, 100 μL total volume, in a flat bottom tissue culture plate and allowed to adhere overnight.
On day two, A549 cells were pre-incubated with a 2,4-pyrimidinediamine test compound or DMSO (control) (Sigma-Aldrich, St. Louis, Mo., Catalog No. D2650) for 1 hour. The cells were then stimulated with IFNγ (75 ng/mL) (Peprotech Inc., Rocky Hill, N.J., Cat. No. 300-02) and allowed to incubate for 24 hours. The final test compound dose range was 30 μM to 14 nM in 200 μL F12K media containing 5% FBS, 0.3% DMSO.
On day three, the cell media was removed and the cells were washed with 200 μL PBS (phosphate buffered saline). Each well was trypsinized to dissociate the cells, then neutralized by addition of 200 μL complete F12K media. Cells were pelleted and stained with an APC conjugated mouse anti-human ICAM-1 (CD54) (BD Pharmingen, San Diego, Calif., Catalog #559771) antibody for 20 minutes at 4° C. Cells were washed with ice cold FACS buffer (PBS+2% FBS) and surface ICAM-1 expression was analyzed by flow cytometry. Detection was performed using a BD LSR I System Flow Cytometer, purchased from BD Biosciences of San Jose, Calif. Events were gated for live scatter and the geometric mean was calculated (Becton-Dickinson CellQuest software version 3.3, Franklin Lakes, N.J.). Geometric means were plotted against the compound concentration to generate a dose response curve.

[2] = tested on: primary human T-cells (IL-2 induced proliferation, JAK-1/JAK-3, Stat-5); experiment: Primary Human T-Cell Proliferation Assay Stimulated with IL-2 (CellTiter-Glo); format: cell-based; settings: Table III Example 4
Outline: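 Read-out is intracellular ATP luminescence (CellTiter-Glo) after 72 h at 37 °C of IL-2-driven growth. Cells, pre-stimulated via TCR and CD28 then washed free of IL-2, were resuspended in Yssel's medium, given 80 U/mL IL-2 in the cell suspension plus duplicate compound; unstimulated wells lacked IL-2.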

[3] = tested on: IL-4 stimulated CD23 upregulation in human Ramos B cells (JAK-1/JAK-3, Stat-6); experiment: Assay for Ramos B-Cell Line Stimulated with IL-4 (CD23 upregulation, FACS); format: cell-based; settings: Table III Example 3
Outline: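 Flow cytometry of CD23 staining after 20-24 h IL-4 stimulation (50 units/mL final) of human Ramos B cells in RPMI with 5% serum. Cells, 5×10^4 per point, received compound or DMSO vehicle for 1 h at 37° C prior to stimulation.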

SMILES | IC50 [1] [nM] | IC50 [2] [nM] | IC50 [3] [nM]
CC(C)S(=O)(=O)NCc1ccc(Nc2nc(Nc3ccc(S(N)(=O)=O)cc3)ncc2F)cc1 [Compound I-65, N2-(4-aminosulfonyl)phenyl-5-fluoro-N4-(4-isopropylsulfonylaminomethyl)phenyl-2,4-pyrimidinediamine] | 10400 | 634 | 211
CCCN(Cc1ccc(Nc2nc(Nc3ccc(S(N)(=O)=O)cc3)ncc2F)cc1)S(=O)(=O)CC [Compound I-17, N2-(4-aminosulfonyl)phenyl-N4-[4-(N-ethylsulfonyl-N-propylamino)methyl]phenyl-5-fluoro-2,4-pyrimidinediamine] | 8240 | 1070 | 164

Reference: patent US9481654B2, “Compositions and methods for inhibition of the JAK pathway” (Rigel Pharmaceuticals, Inc., priority 2006, dated 2016)
